Reference: ChEMBL document CHEMBL1154771, “Discovery of the first series of small molecule H5N1 entry inhibitors” (J Med Chem, 2009)

Key:
Format in all cases: cell-based
A549 [1] = assay: Inhibition of Vesicular stomatitis virus envelope glycoprotein-mediated viral entry into human A549 cells assessed as infectivity at 10 uM after 48 hrs postinfection by luciferase assay relative to control; design: scale not given: the % may be the effect or the level left
A549 [2] = assay: Inhibition of Influenza A virus (A/Bar-headed Goose/Qinghai/59/05(H5N1)) hemagglutininin-mediated viral entry into human A549 cells assessed as infectivity at 10 uM after 48 hrs postinfection by luciferase assay relative to control; design: scale not given: the % may be the effect or the level left
A549 [3] = assay: Inhibition of Influenza A virus (A/Viet Nam/1203/2004(H5N1)) hemagglutininin-mediated viral entry into human A549 cells assessed as infectivity at 10 uM after 48 hrs postinfection by luciferase assay relative to control; design: scale not given: the % may be the effect or the level left
[4] = Inhibition of Influenza A virus (A/Viet Nam/1203/2004(H5N1)) hemagglutininin-mediated viral entry into human A549 cells assessed as luciferase activity after 48 hrs postinfection by luminometry
[5] = Inhibition of Influenza A virus (A/Bar-headed Goose/Qinghai/59/05(H5N1)) hemagglutininin-mediated viral entry into human A549 cells assessed as luciferase activity after 48 hrs postinfection by luminometry

| SMILES | Activity (A549 [1]) [%] | Activity (A549 [2]) [%] | Activity (A549 [3]) [%] | IC50 [4] [µM] | IC50 [5] [µM] |
| --- | --- | --- | --- | --- | --- |
| C[C@@H]1CC[C@@]2(OC1)O[C@H]1C[C@H]3[C@@H]4C[C@H](O)[C@H]5C[C@@H](O[C@@H]6O[C@H](CO)[C@@H](O)[C@H](O)[C@H]6O[C@@H]6O[C@@H](C)[C@H](O)[C@@H](O)[C@H]6O)CC[C@]5(C)[C@H]4CC[C@]3(C)[C@H]1[C@@H]2C | 122 | 61 | 57.9 |  |  |
| COC(=O)[C@]12CCC(C)(C)C[C@H]1C1=CC[C@@H]3[C@@]4(C)CC[C@H](O[C@@H]5O[C@H](CO)[C@@H](O[C@@H]6O[C@@H](C)[C@H](O)[C@@H](O)[C@H]6O)[C@H](O)[C@H]5O[C@@H]5O[C@@H](C)[C@H](O)[C@@H](O)[C@H]5O)C(C)(C)[C@@H]4CC[C@@]3(C)[C@]1(C)CC2 | 48.4 | 35.3 | 17.5 |  |  |
| C[C@@H]1O[C@@H](O[C@H]2[C@H](O[C@H]3CC[C@@]4(C)C(=CC[C@@H]5[C@@H]4CC[C@]4(C)C(=O)CC[C@@H]54)C3)O[C@H](CO)[C@@H](O[C@@H]3O[C@@H](C)[C@H](O)[C@@H](O)[C@H]3O)[C@@H]2O)[C@H](O)[C@H](O)[C@H]1O | 100 | 108 | 106 |  |  |
| C[C@@H]1CC[C@@]2(OC1)O[C@H]1C[C@H]3[C@@H]4C[C@H](O)[C@H]5C[C@@H](O[C@@H]6O[C@H](CO)[C@@H](O[C@@H]7O[C@@H](C)[C@H](O)[C@@H](O)[C@H]7O)[C@H](O)[C@H]6O[C@@H]6O[C@@H](C)[C@H](O)[C@@H](O)[C@H]6O)CC[C@]5(C)[C@H]4CC[C@]3(C)[C@H]1[C@@H]2C | 111 | 42.6 | 36.3 | 7.84 | 7.22 |
| CC(=O)O[C@H]1C[C@@H]2[C@H](CC[C@]3(C)[C@@H]4[C@H](C[C@@H]23)O[C@]2(CC[C@@H](C)CO2)[C@H]4C)[C@@]2(C)CC[C@H](O[C@@H]3O[C@H](CO)[C@@H](O[C@@H]4O[C@@H](C)[C@H](O)[C@@H](O)[C@H]4O)[C@H](O)[C@H]3O[C@@H]3O[C@@H](C)[C@H](O)[C@@H](O)[C@H]3O)C[C@H]12 | 101 | 50.4 | 46.6 | 9.25 | 7.58 |
| Cc1cn([C@H]2C[C@H](N=[N+]=[N-])[C@@H](CO)O2)c(=O)[nH]c1=O [ZIDOVUDINE] | 0.015 |  |  | 0.011 | 0.012 |
| CCC(/C=C/[C@@H](C)[C@H]1CC[C@H]2[C@@H]3CC=C4C[C@@H](O[C@@H]5O[C@H](CO)[C@@H](O[C@@H]6O[C@@H](C)[C@H](O)[C@@H](O)[C@H]6O)[C@H](O)[C@H]5O[C@@H]5O[C@@H](C)[C@H](O)[C@@H](O)[C@H]5O)CC[C@]4(C)[C@H]3CC[C@]12C)C(C)C (stereo partly specified) | 76.2 | 73.6 | 64.6 |  |  |
| C[C@@H]1CC[C@@]2(OC1)O[C@H]1C[C@H]3[C@@H]4C[C@H](O)[C@H]5C[C@@H](O[C@@H]6O[C@H](CO)[C@@H](O[C@@H]7O[C@@H](C)[C@H](O)[C@@H](O)[C@H]7O)[C@H](O)[C@H]6O)CC[C@]5(C)[C@H]4CC[C@]3(C)[C@H]1[C@@H]2C | 117 | 98.2 | 87.4 |  |  |
| C[C@@H](CO)CC[C@H]1O[C@H]2C[C@H]3[C@@H]4C[C@H](O)[C@H]5C[C@@H](O[C@@H]6O[C@H](CO)[C@@H](O[C@@H]7O[C@@H](C)[C@H](O)[C@@H](O)[C@H]7O)[C@H](O)[C@H]6O[C@@H]6O[C@@H](C)[C@H](O)[C@@H](O)[C@H]6O)CC[C@]5(C)[C@H]4CC[C@]3(C)[C@H]2[C@@H]1C | 111 | 97.9 | 102 |  |  |
| COC(=O)[C@]12CC[C@@H](C)[C@H](C)[C@H]1C1=CC[C@@H]3[C@@]4(C)CC[C@H](O[C@@H]5O[C@H](CO)[C@@H](O[C@@H]6O[C@@H](C)[C@H](O)[C@@H](O)[C@H]6O)[C@H](O)[C@H]5O[C@@H]5O[C@@H](C)[C@H](O)[C@@H](O)[C@H]5O)C(C)(C)[C@@H]4CC[C@@]3(C)[C@]1(C)CC2 | 86 | 37.7 | 43.3 | 8.54 | 6 |
